We go through one compound from publication PMC3982590 (Biochemistry, 2013).

This assay has as its target T1, TtPFK (Thermus thermophilus, UniProt P21777, L313W).
T1 sequence (P21777 1-322 L313W): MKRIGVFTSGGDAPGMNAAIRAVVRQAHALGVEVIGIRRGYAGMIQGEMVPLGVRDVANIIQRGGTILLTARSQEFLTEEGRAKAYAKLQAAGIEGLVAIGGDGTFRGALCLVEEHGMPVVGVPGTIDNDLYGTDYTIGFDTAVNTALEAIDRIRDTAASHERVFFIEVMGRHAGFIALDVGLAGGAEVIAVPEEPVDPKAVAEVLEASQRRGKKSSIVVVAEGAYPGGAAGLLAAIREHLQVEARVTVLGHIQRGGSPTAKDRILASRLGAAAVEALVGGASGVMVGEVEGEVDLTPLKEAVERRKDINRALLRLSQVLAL
In words: intrinsic tryptophan fluorescence titration. It is filed as binding.

Regarding `C=C(OP(=O)(O)O)C(=O)O` [PEP], the equilibrium dissociation constant (Kd) came to 660 ± 60 nM.
